Data from publication PMC9821843, “Powerful Potential of Polyfluoroalkyl-Containing 4-Arylhydrazinylidenepyrazol-3-ones for Pharmaceuticals” (Molecules, 2022).
Like-named read-outs stand apart in the source and are kept apart here.

Columns and labels:
[1] = test system: Sprague-Dawley rats; test: Carrageenan-induced paw edema model (anti-inflammatory activity); format: in vivo; conditions: ip, dose 10 mg/kg, four independent experiments
Procedure: Anti-inflammatory activity was studied in Sprague-Dawley rats (3 male and 3 female animals per group) by using the common carrageenan-induced paw edema model. The investigated compounds in 1% starch mucilage were intraperitoneally administered at the corresponding dose to a treated group of rodents 30 min before the injection of 0.1 mL of freshly prepared 1% carrageenan (λ-carrageenan, type IV; Sigma Aldrich, an affiliate of Merck KGaA, Darmstadt, Germany) solution in the right hind paw plantar surface. The negative control group was treated with 1% starch mucilage solution only. Diclofenac sodium (10 mg/kg in 1% starch mucilage solution) was used as a reference drug. Paw volumes were measured oncometrically with water plethysmometer (TSE Volume Meter, Bad Homburg, Germany) before carrageenan administration (“zero time”) and at 1st, 3rd, 5th and 24th h after its injection. An anti-inflammatory activity of the sample at a certain time point was calculated in two steps. First, the percentage of an edema increment (i.e., relative volume change for the inflamed paw vs. “zero time” value) both in the negative control group (Pc) and in the treated group (Ptr) were calculated for this time point for each animal. The difference between treated and control group was considered significant at p < 0.05. Then, for such cases, swelling inhibition was calculated according to the formula: 100% (Pc − Ptr)/Pc and considered as a measure of anti-inflammatory activity of the sample.

[2] = test system: Sprague-Dawley (SD) rats; test: Hot plate test (analgesic activity); format: in vivo; conditions: Rattus norvegicus, hot plate test, rats, ip, dose 10 mg/kg, eight independent experiments
How it was run: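 Test compounds were given i.p. as suspensions in 1% starch mucilage to SD rats (3 male, 3 female per group), vehicle as negative control. At 1 and 2 h post-dose, latency to nociceptive response (jumping, hind paw licking/shaking) on a 50 °C plate was recorded, 30 s cutoff.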

[3] = biological target: T1, ratTRPV1 (rTRPV1) (Rattus norvegicus, UniProt O35433); test: TRPV1 calcium imaging in CHO cells (acid / 2APB activation); format: cell-based; conditions: 50 μM
T1 construct: expressed in transfected cells
T1 sequence (O35433 whole entry): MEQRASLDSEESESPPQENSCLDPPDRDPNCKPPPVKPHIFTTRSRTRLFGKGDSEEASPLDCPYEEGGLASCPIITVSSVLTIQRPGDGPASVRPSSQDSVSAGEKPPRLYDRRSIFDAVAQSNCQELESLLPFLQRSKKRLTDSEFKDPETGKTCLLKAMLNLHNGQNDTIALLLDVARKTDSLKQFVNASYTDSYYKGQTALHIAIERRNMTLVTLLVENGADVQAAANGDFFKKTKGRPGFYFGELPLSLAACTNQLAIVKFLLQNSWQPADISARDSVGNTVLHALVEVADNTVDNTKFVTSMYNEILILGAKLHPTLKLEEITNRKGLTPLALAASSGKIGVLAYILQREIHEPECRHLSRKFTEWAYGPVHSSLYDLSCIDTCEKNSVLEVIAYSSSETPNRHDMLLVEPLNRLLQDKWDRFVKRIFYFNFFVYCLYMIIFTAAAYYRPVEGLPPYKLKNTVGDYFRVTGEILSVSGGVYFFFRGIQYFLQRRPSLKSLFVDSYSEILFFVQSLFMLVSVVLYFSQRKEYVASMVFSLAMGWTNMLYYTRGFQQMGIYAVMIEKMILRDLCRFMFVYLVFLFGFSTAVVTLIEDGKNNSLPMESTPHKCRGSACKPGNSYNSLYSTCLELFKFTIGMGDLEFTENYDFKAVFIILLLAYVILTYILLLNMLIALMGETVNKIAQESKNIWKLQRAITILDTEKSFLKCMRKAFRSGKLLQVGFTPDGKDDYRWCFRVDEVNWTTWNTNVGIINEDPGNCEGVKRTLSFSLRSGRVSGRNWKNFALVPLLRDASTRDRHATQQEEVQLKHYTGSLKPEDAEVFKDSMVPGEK
Procedure: Testing for receptors ratTRPA1 (rTRPA1) and ratTRPV1 (rTRPV1), stably expressed in CHO cells, was carried out using the calcium imaging method as described in [123, 124]. Fluorescence was performed using NOVOstar (BMG LABTECH, Ortenberg, Germany). The tested substances in 26% DMSO solution or 26% DMSO solution alone (negative control) (5 μL) were added to the cells loaded with the cytoplasmic calcium indicator Fluo-4AM using Fluo-4 Direct™ Calcium Assay Kit (Thermo Fisher Scientific Inc., Waltham, MA, USA) (60 μL) and incubated 5–10 min. Final DMSO concentration was 2%. Changes in cell fluorescence (λex = 485 nm, λem = 520 nm) were monitored at 25 °C before and after the addition of relevant agonist. The AITC final concentration 160 μM was used for rTRPA1 activation. For rTRPV1 activation we used (1) acid-salt buffer pH4.01 (diluted 2 times Buffer solution pH 4.01 (Mettler Toledo, Greifensee, Switzerland) containing 150 mM NaCl), (2) 2APB in 10 mM HEPES/HBSS, pH 7.4—final concentration 160 μM, or (3) 2APB in acid-salt buffer pH 4.01—final concentration 80 μM. Nonspecificity was tested on wild type CHO.
To achieve the required level of acidification, the cell medium with fluorescent dye (pH 7.4) was pre-titrated to determine the required volume of acid-salt buffer until pH 6.2 was reached. The pH level was also monitored after the test as an average of 10–12 wells. […]

SMILES: Cc1ccc(N/N=C2\C(=O)N(c3ccc(C)cc3)N=C2C(F)(F)C(F)(F)F)cc1
- melting point: 165 to 166 °C

SMILES: O=C(O)Cc1ccccc1Nc1c(Cl)cccc1Cl [Diclofenac, reference compound]
- Inhibition of Paw Edema Development Comparing to Control, after 1 h [1]: 35.6 ± 5.8 ^1%
- Inhibition of Paw Edema Development Comparing to Control, after 3 h [1]: 54.3 ± 12.1 ^1%
- Inhibition of Paw Edema Development Comparing to Control, after 5 h [1]: 46.2 ± 13.2 ^1%
- change in vivo at 10 mg/kg ([2]; 1 h, read-out: Latent Period Prolongation, % 1 h): 63.5 ± 18.2%
- change in vivo at 10 mg/kg ([2]; 2 h, read-out: Latent Period Prolongation, % 2 h): 70 ± 20.8%

SMILES: Oc1cc2c(cc1O)CN(C(=S)NCCc1ccc(Cl)cc1)CCC2 [capsazepine]
- inhibition of the increase in intracellular Ca2+ (TRPV1 activation by acidic solution or 160 μM 2APB) [3]: effectively inhibited
